According to patent publication US10632125B2, “MTH1 inhibitors for treatment of inflammatory and autoimmune conditions” (THOMAS HELLEDAYS STIFTELSE FÖR MEDICINSK FORSKNING, priority 2014, dated 2020):

The molecules below were run against MTH1 (Homo sapiens, UniProt P36639) (assay: MTH1 enzymatic assay (malachite green, coupled to pyrophosphatase)). Settings: dGTP 100 μM, MTH1 6 nM; 96- or 384-well format; read-out: IC50.
Format: biochemical
Description: MTH1 catalyzes the hydrolysis of dGTP to dGMP and PPi. By coupling the reaction to pyrophosphatase added in excess PPi is converted to Pi that can be detected by using the malachite green assay reagent. […] 96-well method: Briefly, the compound to be analyzed is diluted in DMSO in a 1:3 dilution series generating 12 different compound concentrations giving a final DMSO concentration of 1% in the assay well. MTH1 diluted in assay buffer (100 mM Tris-acetate, 40 mM NaCl, 10 mM magnesium acetate, 1 mM DTT and 0.005% Tween 20) fortified with E. coli pyrophosphatase (0.2 U/ml) is added to a final concentration of 6 nM. dGTP diluted in assay buffer is added to a final concentration of 100 μM. The reaction mixture is incubated for 15 minutes at 22° C. To 100 μl reaction mixture, 25 μl Malachite green assay regent (0.095% Malachite green in 17% H2SO4, 1.5% Ammonium molybdate, 0.17% Tween 20) is added, followed by incubation with shaking for 15 minutes at 22° C. The absorbance of the assay plate is read at 630 nm using a Hidex Sense Multilabel plate reader. The IC50 value is determined by fitting a dose response curve to the data points using nonlinear regression analysis and the equation Y=Bottom+(Top-Bottom)/(1+10^((Log IC50−X)*HillSlope)), where Y is the read absorbance at 630 nm and X is log [compound].
384-Well Method: The compounds to be tested are nano-dispensed, in 11 concentrations, directly in assay plates, with a final DMSO concentration <1%. The protocol and the reaction mixture are the same as for the 96-well assay, with a total reaction volume of 50 μl/well to which 10 μl of Malachite green reagent is added. All additions to the assay plates are made with multidrop.
`CNc1cc(-c2cc(Cl)c(C)cc2F)nc(N)n1` [Example 214, 6-(5-chloro-2-fluoro-4-methylphenyl)-4-N-methylpyrimidine-2,4-diamine] showed an IC50 of under 200 nM.
With `Cc1cc(-c2cc(NC3CC3)nc(N)n2)c(C)cc1F` [Example 216, 4-N-cyclopropyl-6-(4-fluoro-2,5-dimethylphenyl)pyrimidine-2,4-diamine] the IC50 was under 200 nM.
`COc1cc(C)c(-c2cc(NC3CC3)nc(N)n2)cc1C` [Example 217, 4-N-cyclopropyl-6-(4-methoxy-2,5-dimethylphenyl)pyrimidine-2,4-diamine] showed an IC50 of under 200 nM.
`Cc1ccc(C)c(-c2cc(NC3CC3)nc(N)n2)c1` [Example 218, 4-N-cyclopropyl-6-(2,5-dimethylphenyl)pyrimidine-2,4-diamine] showed an IC50 of under 200 nM.
Molecule `CCNc1cc(-c2cc(Cl)ccc2C)nc(N)n1` [Example 221, 6-(5-chloro-2-methylphenyl)-4-N-ethylpyrimidine-2,4-diamine] has an IC50 of under 200 nM.
Molecule `Cc1cc(-c2cc(NCCc3ccc(Cl)cc3)nc(N)n2)c(C)cc1F` [Example 223, 4-N-[2-(4-chlorophenyl)ethyl]-6-(4-fluoro-2,5-dimethylphenyl)pyrimidine-2,4-diamine] has an IC50 of under 200 nM.
For `Cc1ccc(C)c(-c2cc(NCCc3ccc(Cl)cc3)nc(N)n2)c1` [Example 224, 4-N-[2-(4-chlorophenyl)ethyl]-6-(2,5-dimethylphenyl)pyrimidine-2,4-diamine], the IC50 was under 200 nM.
Work on `CNc1cc(-c2ccc(/C=C/C(=O)O)cc2)nc(N)n1` [Example 233, (2E)-3-{4-[2-amino-6-(methylamino)pyrimidin-4-yl]phenyl}prop-2-enoic acid] yielded an IC50 of under 200 nM.
`Cc1cccc(-c2cc(NCC3CN(C(=O)OC(C)(C)C)C3)nc(N)n2)c1C` [Example 234, tert-butyl 3-({[2-amino-6-(2,3-dimethylphenyl)pyrimidin-4-yl]amino}methyl)-azetidine-1-carboxylate] showed an IC50 of under 200 nM.
`Nc1nc(NC2CC2)cc(-c2ccc3[nH]ccc3c2)n1` [Example 235, 4-N-cyclopropyl-6-(1H-indol-5-yl)pyrimidine-2,4-diamine] gave an IC50 of under 200 nM.
`Cc1cccc(-c2cc(NCC(C)(C)CNC(=O)OC(C)(C)C)nc(N)n2)c1C` [Example 239, tert-Butyl (3-((2-amino-6-(2,3-dimethylphenyl)pyrimidin-4-yl)amino)-2,2-dimethyl-propyl)carbamate] showed an IC50 of under 200 nM.
In the case of `CNc1cc(-c2cc(Cl)c(OC)cc2C)nc(N)n1` [Example 240, 6-(5-chloro-4-methoxy-2-methylphenyl)-4-N-methylpyrimidine-2,4-diamine], the IC50 is reported as under 200 nM.
In the case of `Cc1c(Cl)cccc1-c1cc(NC(C)Cc2c[nH]c3ccccc23)nc(N)n1` (centres unmarked) [Example 243, 6-(3-chloro-2-methylphenyl)-4-N-[1-(1H-indol-3-yl)propan-2-yl]pyrimidine-2,4-diamine], the IC50 is reported as under 200 nM.
For `Cc1cccc(-c2cc(NCCOc3ccccc3Cl)nc(N)n2)c1C` [Example 247, 4-N-[2-(2-chlorophenoxy)ethyl]-6-(2,3-dimethylphenyl)pyrimidine-2,4-diamine], the IC50 was under 200 nM.
Molecule `Cc1cccc(-c2cc(NCCc3nc4cc(Cl)ccc4[nH]3)nc(N)n2)c1C` [Example 248, 4-N-[2-(5-chloro-1H-1,3-benzodiazol-2-yl)ethyl]-6-(2,3-dimethylphenyl)pyrimidine-2,4-diamine] has an IC50 of under 200 nM.
`Cc1cccc(-c2cc(NCC(C)Oc3cccnc3)nc(N)n2)c1C` (centres unmarked) [Example 250, 6-(2,3-dimethylphenyl)-4-N-[2-(pyridin-3-yloxy)propyl]pyrimidine-2,4-diamine] showed an IC50 of under 200 nM.
`Cc1cccc(-c2cc(NCc3ccc4[nH]ncc4c3)nc(N)n2)c1C` [Example 251, 6-(2,3-dimethylphenyl)-4-N-(1H-indazol-5-ylmethyl)pyrimidine-2,4-diamine] was tested, and the IC50 was under 200 nM.
With `COc1cc(CNc2cc(-c3cccc(C)c3C)nc(N)n2)ccn1` [Example 253, 6-(2,3-dimethylphenyl)-4-N-[(2-methoxypyridin-4-yl)methyl]pyrimidine-2,4-diamine] the IC50 was under 200 nM.
`CNc1cc(-c2cccc(C#N)c2C)nc(N)n1` [Example 258, 3-[2-amino-6-(methylamino)pyrimidin-4-yl]-2-methylbenzonitrile] showed an IC50 of under 200 nM.
Molecule `CNc1cc(-c2cccc3c2OCC3)nc(N)n1` [Example 261, 6-(2,3-dihydro-1-benzofuran-7-yl)-4-N-methylpyrimidine-2,4-diamine] has an IC50 of under 200 nM.
In the case of `CNc1cc(-c2cc(S(=O)(=O)N3CCOCC3)ccc2C)nc(N)n1` [Example 262, 4-N-methyl-6-[2-methyl-5-(morpholine-4-sulfonyl)phenyl]pyrimidine-2,4-diamine], the IC50 is reported as under 200 nM.
Molecule `Nc1nc(NCCc2ccc(Cl)cc2)cc(-c2cccc(Cl)c2Cl)n1` [Example 263, 4-N-[2-(4-chlorophenyl)ethyl]-6-(2,3-dichlorophenyl)pyrimidine-2,4-diamine] has an IC50 of under 200 nM.
In the case of `Cc1cccc(-c2cc(NCCc3cccnc3)nc(N)n2)c1C` [Example 268, 6-(2,3-dimethylphenyl)-4-N-[2-(pyridin-3-yl)ethyl]pyrimidine-2,4-diamine], the IC50 is reported as under 200 nM.
`Cc1cccc(-c2cc(NCCNC(=O)OC(C)(C)C)nc(N)n2)c1C` [Example 271, tert-butyl N-(2-{[2-amino-6-(2,3-dimethylphenyl)pyrimidin-4-yl]amino}ethyl)-carbamate] showed an IC50 of under 200 nM.
Molecule `Cc1cccc(-c2cc(NCCN(C)C(=O)OC(C)(C)C)nc(N)n2)c1C` [Example 274, tert-butyl N-(2-{[2-amino-6-(2,3-dimethylphenyl)pyrimidin-4-yl]amino}ethyl)-N-methylcarbamate] has an IC50 of under 200 nM.
Work on `Cc1cccc(-c2cc(NCc3ccc(S(C)(=O)=O)cc3)nc(N)n2)c1C` [Example 279, 6-(2,3-dimethylphenyl)-4-N-[(4-methanesulfonylphenyl)methyl]pyrimidine-2,4-diamine] yielded an IC50 of under 200 nM.
`Cc1cccc(-c2cc(NCc3ccc(N4CCN(C)CC4)cc3)nc(N)n2)c1C` [Example 280, 6-(2,3-dimethylphenyl)-4-N-{[4-(4-methylpiperazin-1-yl)phenyl]methyl}pyrimidine-2,4-diamine] was tested, and the IC50 was under 200 nM.
With `Cc1cccc(-c2cc(NCC3CCN(C(=O)OC(C)(C)C)CC3)nc(N)n2)c1C` [Example 283, tert-butyl 4-({[2-amino-6-(2,3-dimethylphenyl)pyrimidin-4-yl]amino}methyl)-piperidine-1-carboxylate] the IC50 was under 200 nM.
`CC(=O)NCCCCNc1cc(-c2cccc(Cl)c2Cl)nc(N)n1` [Example 303, N-(4-{[2-Amino-6-(2,3-dichlorophenyl)pyrimidin-4-yl]amino}butyl)acetamide] showed an IC50 of under 200 nM.
`Nc1nc(NCc2ccc(-c3csnn3)cc2)cc(-c2cccc(Cl)c2Cl)n1` [Example 305, 6-(2,3-Dichlorophenyl)-4-N-{[4-(1,2,3-thiadiazol-4-yl)phenyl]methyl}pyrimidine-2,4-diamine] was tested, and the IC50 was under 200 nM.
Molecule `C=CC(=O)Nc1cccc(-c2cc(NC)nc(N)n2)c1` [Example 309, N-{3-[2-Amino-6-(methylamino)pyrimidin-4-yl]phenyl}prop-2-enamide] has an IC50 of under 200 nM.
Molecule `CNc1cc(-c2cccc(NC(=O)/C=C/c3ccccc3)c2)nc(N)n1` [Example 310, (2E)-N-{3-[2-Amino-6-(methylamino)pyrimidin-4-yl]phenyl}-3-phenylprop-2-enamide] has an IC50 of under 200 nM.
